Experiment [1] has as its target T1, MAP1LC3B ATG8 (Homo sapiens, UniProt Q9GZQ8). The experiment is described as follows: FP displacement assay, MAP1LC3B ATG8. In kind it is binding. The following applies: for Kd: read-out: KD-values [µM] + SEM.
Procedure: (§1) FP experiments were performed, as previously described (Kliche et al, [2021], [2023]), on an iD5 plate reader (Molecular devices) using black half-area non-binding 96-well plates (Corning). In order to calculate the FP signal in millipolarisation (mP), the FITC-labelled peptides were excited at 485 nm and the emitted light was measured at 535 nm in two different angles. For saturation experiments, a dilution series of the respective protein domains was generated (25 µL) and 10 nM fluorescein isothiocyanate (FITC)-labelled peptide (diluted in 50 mM sodium phosphate buffer pH 7.4, 0.05% Tween) were added in an end volume of 50 µL. A control experiment titrating GST was performed for the binding of the NEDD4 WW2 domain, since the GST-tagged construct was used for affinity measurements. For fitting the data, the buffer-corrected reduced values were plotted in GraphPad PRISM against the respective protein concentration and the KD-values were obtained by fitting against the quadratic equation (Gianni et al, [2005]).
(§2) The buffer-corrected reduced values were subsequently plotted against the logarithmic unlabelled peptide concentration to derive the IC50 values by using the sigmoidal dose-response (x is logarithmic) fit in GraphPad PRISM and calculate the KD values as described previously (Nikolovska-Coleska et al, [2004]).
Experiment [2] deals with T1, MAP1LC3B ATG8. The experiment is described as follows: GenVar_HD2 ProP-PD phage selection, MAP1LC3B ATG8. The following applies: bait MAP1LC3B ATG8; from NGS counts of overlapping wild-type/mutant library peptide pairs; positive = mutation enhances, negative = disrupts binding. How it is done:
Phage display screens were performed according to previous reports (Benz et al, [2022]; Ali et al, [2020]) and for four consecutive selection rounds with five to six replicates per bait protein domain against the […] library.
On the first day, both bait (15 µg in 100 µL PBS) and control protein domains (GST and MBP; 10 µg in 100 µL PBS) were immobilised on a 96-well MaxiSorb plate (Nunc) overnight in the cold room while shaking. Additionally, a 10 mL culture of Omnimax E. coli bacteria supplemented with 10 µg/mL tetracycline was incubated overnight at 37 °C at 200 rpm.
First, protein solutions were removed from both control and bait protein domain plates and the wells were blocked with 0.5% BSA in PBS (200 µL/well) for 1 h in the cold room while shaking. After that, three Omnimax E. coli cultures were started supplemented with either 30 µg/mL kanamycin, 100 µg/mL carbenicillin and 10 µg/mL tetracycline and incubated at 37 °C and 200 rpm. The two first cultures served as a means to check for helper phage contamination (kanamycin) and phages with library phagemid contamination (carbenicillin) of the culture used for elution of the phages during selections. The tetracycline Omnimax E. coli culture was grown until OD at 600 nm reached 0.6–0.8.
Naïve phage libraries were precipitated (10 µL/well of bait protein domain) by diluting the library tenfold with PBS, adding one-fourth of 20% […] and 400 mM NaCl and incubating the mixture for 15 min on ice. Subsequently, phages were spun down for 15 min at 13,000 × g and resuspended in 0.5% BSA and 0.05% Tween-20 in PBS (100 µL/well). Control domain plates were washed four times with 200 µL 0.05% Tween-20 in PBS, 100 µL of the naïve phage library (10^11 phages/mL) were added to every well and the plates incubated for 1 h in the cold room while shaking. Next, protein bait domain plates were washed four times with 0.05% Tween-20 in PBS and the phage solution from the control protein plate was transferred to the respective wells on the protein bait domain plate. […]

In experiment [3] the test system is KPNA4 ARM. Put plainly: GenVar_HD2 ProP-PD phage selection, KPNA4 ARM. The experiment is classed as binding, human. The following applies: for max_promiscuity / max_specificity: bait-prey protein level, bait_accession O00629; for Mutation enrichment score: bait KPNA4 ARM, from NGS counts of overlapping wild-type/mutant library peptide pairs, positive = mutation enhances, negative = disrupts binding.

Experiment [4] concerns the target T1, MAP1LC3B ATG8. The experiment is described as follows: Isothermal titration calorimetry, MAP1LC3B ATG8. In kind it is binding. Also noted: S∆T / ∆H: unit not given here. The following applies: ITC; for N (stoichiometry of the interaction): N value from the fit or set if necessary. In general terms: Isothermal titration calorimetry measures the heat released or taken up as one component is titrated into another.

Experiment [5] addresses KPNA7 ARM major (Homo sapiens, UniProt A9QM74). Put plainly: FP displacement assay, KPNA7 ARM major pocket. The experiment is classed as binding. The following applies: for Kd: read-out: KD-values [µM] + SEM.
Procedure: as §1, §2
For experiment [6], the target named is KPNA4 ARM major (Homo sapiens, UniProt O00629). Put plainly: FP displacement assay, KPNA4 ARM major pocket. In kind it is binding. The following applies: from FP displacement KD values, KPNA4 ARM major pocket.
Procedure: as §1, §2
The target of experiment [7] is ABL1 SH3 (Homo sapiens, UniProt P00519). Put plainly: GenVar_HD2 ProP-PD phage selection, ABL1 SH3. In kind it is binding. The following applies: for confidence: confidence of the enriched peptide; for overlap: overlapping peptides; for replicates: replicates in which the peptide was found; for mutant_found: True/False if a mutated peptide was found in selection; for wildtype_found: True/False if a wild type peptide was found in selection; for mutation_effect_on_PPI: bait-mutation pair categorized as diminished, enhanced or no_effect; for max_mutant_confidence: maximum confidence for an enriched mutated peptide; for max_wildtype_confidence: maximum confidence for an enriched wild type peptide.

Where [8] appears, read: bait domain-prey protein level, bait ABL1_SH3__P00519_60_121.
[9] abbreviates: phage selection, bait ABL1_SH3__P00519_60_121.

Entries after “also recorded” stand apart in the source; their conditions may differ.

Chain of ABL1 SH3 (P00519 60-121): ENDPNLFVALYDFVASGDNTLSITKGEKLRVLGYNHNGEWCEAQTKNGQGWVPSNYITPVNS
Chain of KPNA7 ARM major (A9QM74 66-488 limits assumed): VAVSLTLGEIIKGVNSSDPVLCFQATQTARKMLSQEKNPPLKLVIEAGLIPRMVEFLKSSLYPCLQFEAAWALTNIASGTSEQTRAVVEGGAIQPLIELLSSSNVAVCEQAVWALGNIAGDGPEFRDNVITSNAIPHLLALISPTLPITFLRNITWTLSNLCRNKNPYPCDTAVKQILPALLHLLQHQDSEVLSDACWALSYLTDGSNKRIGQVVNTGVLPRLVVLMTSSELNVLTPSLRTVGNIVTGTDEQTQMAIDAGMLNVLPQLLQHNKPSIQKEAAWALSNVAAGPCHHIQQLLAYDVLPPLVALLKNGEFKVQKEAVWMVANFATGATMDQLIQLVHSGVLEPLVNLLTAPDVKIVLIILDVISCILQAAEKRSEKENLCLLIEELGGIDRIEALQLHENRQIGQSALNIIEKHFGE
Chain of KPNA4 ARM major (O00629 68-487): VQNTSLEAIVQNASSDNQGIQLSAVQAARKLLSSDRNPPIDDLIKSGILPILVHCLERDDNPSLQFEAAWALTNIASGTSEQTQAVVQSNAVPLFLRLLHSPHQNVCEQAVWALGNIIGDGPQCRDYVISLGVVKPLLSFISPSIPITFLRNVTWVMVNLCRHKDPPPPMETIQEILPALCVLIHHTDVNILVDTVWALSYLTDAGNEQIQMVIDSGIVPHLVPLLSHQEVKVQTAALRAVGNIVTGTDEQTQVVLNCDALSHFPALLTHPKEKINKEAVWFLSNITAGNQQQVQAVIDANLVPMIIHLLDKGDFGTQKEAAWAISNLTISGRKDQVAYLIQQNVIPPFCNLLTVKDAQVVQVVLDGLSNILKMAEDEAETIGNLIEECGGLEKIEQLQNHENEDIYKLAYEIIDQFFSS

As to `CC(=O)NCC(=O)N[C@@H](CC(=O)O)C(=O)N[C@@H](CC(=O)O)C(=O)N[C@@H](CC(=O)O)C(=O)N[C@@H](Cc1c[nH]c2ccccc12)C(=O)N[C@H](C(=O)N[C@@H](Cc1c[nH]cn1)C(=O)N[C@@H](CC(C)C)C(=O)N[C@@H](CO)C(=O)N[C@@H](CO)C(=O)N[C@@H](CCCCN)C(=O)N[C@@H](CCC(=O)O)C(=O)N[C@H](C(=O)N[C@@H](CC(=O)O)C(=O)N[C@@H](CC(C)C)C(=O)N[C@@H](CO)C(N)=O)C(C)C)[C@@H](C)O` [SQSTM1_334-349 P348L], in experiment [1] (FP affinity measurements, MAP1LC3B ATG8), the “effect of the mutation on binding (in words)” value is “the mutation has no impact on binding; also recorded: did not affect the binding”. The Kd in experiment [1] worked out at 0.6 ± 0.1 µM. In addition, the Mutation enrichment score in experiment [2] is given as 7.6.

In the case of `CC(=O)NCC(=O)N[C@@H](CC(=O)O)C(=O)N[C@@H](CC(=O)O)C(=O)N[C@@H](CC(=O)O)C(=O)N[C@@H](Cc1c[nH]c2ccccc12)C(=O)N[C@H](C(=O)N[C@@H](Cc1c[nH]cn1)C(=O)N[C@@H](CC(C)C)C(=O)N[C@@H](CO)C(=O)N[C@@H](CO)C(=O)N[C@@H](CCCCN)C(=O)N[C@@H](CCC(=O)O)C(=O)N[C@H](C(=O)N[C@@H](CC(=O)O)C(=O)N1CCC[C@H]1C(=O)N[C@@H](CO)C(N)=O)C(C)C)[C@@H](C)O` [SQSTM1_334-349 wild-type], in experiment [1], the Kd was determined as 0.5 ± 0.1 µM.

For A7E2Y1, in experiment [3], the max_promiscuity amounted to 10 and the max_specificity stood at 0.7829.

“Ac-EDEVYETVVDTSEEDS-NH2 [BRCA2_292-307 wild-type]”: the Kd in experiment [1] was 3.12 ± 0.08 µM; in experiment [4] (average of the Kd [µM] column, wild-type technical duplicate, mutant technical triplets, read-out: Average Kd), 64 µM; in experiment [4] (KD (isothermal titration calorimetry), 50 mM sodium phosphate pH 7.4, 1 mM DTT, peptide titrated in tenfold excess, 16 injections), 20 to 100 µM. Moreover, the Ka is on record as 9160 in experiment [4] (replicate 1) and 55000 in experiment [4] (replicate 2). Besides, the “S∆T” value in experiment [4] (replicate 1) is -1.5; in experiment [4] (replicate 2), 13.7. Moreover, the entries for the “∆H” value in experiment [4] (replicate 1) and in experiment [4] (replicate 2) were -5832 and -2389, respectively. Moreover, the “N (stoichiometry of the interaction)” value is reported as 0.70 in experiment [4] (replicate 1) and 0.684 in experiment [4] (replicate 2).

As to “Ac-EPSEKCTRLEEEIVEY-NH2 [CDC45_152-166 R157C]”, in experiment [5] (from FP displacement KD values, KPNA7 ARM major pocket), the “loss of binding, mutant vs wild-type peptide” value is listed as 50 fold. In addition, the Kd in experiment [5] stood at 380 ± 15 µM. Besides, the “weakened binding, mutant vs wild-type peptide” value in experiment [6] is 70 fold. Moreover, the Mutation enrichment score in experiment [3] is −7.

“Ac-EPSEKRTRLEEEIVEY-NH2 [CDC45_152-166 wild-type]”: the Kd in experiment [5] worked out at 6.6 ± 0.7 µM.

“Ac-LDLDDRWQFKRSQLLD-NH2 [ABRAXAS1_349-364 R361Q]”: the “weakened binding, mutant vs wild-type peptide” value in experiment [6] worked out at 400 fold. Further, the Mutation enrichment score in experiment [3] is recorded as −6.

For “Ac-YPRMPEAARPVAPAPAAP-NH2 [TP53_64-80 P72R]”, the Mutation enrichment score in experiment [7] (bait ABL1 SH3, from NGS counts of overlapping wild-type/mutant library peptide pairs, positive = mutation enhances, negative = disrupts binding) is recorded as −6.

For EGR2, in experiment [7] (setting [8]), the max_promiscuity turned out to be 5 and the max_specificity was determined as 0.973.

In experiment [7] (setting [9]), EPRFSPPHSPPGPAMP registered a promiscuity of 2, a specificity of 0.9643, a confidence of 3 and an overlap of 1. In experiment [7] (setting [9]), the replicates is listed as 5.

In experiment [7] (setting [9]), EPRFSPPPSPPGPAMP came in with a promiscuity of 5, a specificity of 0.995, a confidence of 4 and an overlap of 1. In experiment [7] (setting [9]), this molecule registered a replicates of 6.

Consider “HYLDLLALLLDSSEPRFSPPHSPPGPCMPEVFLEAAVALIQ [O15287.P386H]”, for which, in experiment [7], the mutant_found result is “TRUE”, the wildtype_found entry is reported as “TRUE”, the max_mutant_confidence is 3 and the max_wildtype_confidence is listed as 4. For the same molecule, the mutation_effect_on_PPI entry in experiment [7] (bait ABL1_SH3__P00519_60_121) is “no_effect”.

Regarding “HYLDLLALLLDSSEPRFSPPLSPPGPCMPEVFLEAAVALIQ [O15287.P386L]”, in experiment [7], the mutant_found entry was “TRUE”, the wildtype_found result is given as “TRUE”, the max_mutant_confidence amounted to 2 and the max_wildtype_confidence is recorded as 4. Further, the mutation_effect_on_PPI entry in experiment [7] (bait ABL1_SH3__P00519_60_121) is reported as “no_effect”.

Regarding “KPPEEPGQCPAPEELPLFPPSGEPSLSPLLGEPALSEPGEP [O14686.P886S]”, in experiment [7], the mutant_found entry was “TRUE”, the wildtype_found result is “TRUE”, the max_mutant_confidence is recorded as 1 and the max_wildtype_confidence stood at 3. The mutation_effect_on_PPI result in experiment [7] (bait ABL1_SH3__P00519_60_121) was “no_effect”.

Regarding “KPPEEPGQCPAPEELPLFPPTGEPSLSPLLGEPALSEPGEP [O14686.P886T]”, in experiment [7], the mutant_found result is given as “FALSE”, the wildtype_found result is “TRUE” and the max_wildtype_confidence is recorded as 3. Moreover, the mutation_effect_on_PPI entry in experiment [7] (bait ABL1_SH3__P00519_60_121) is “diminished”.

In experiment [7] (setting [9]), LDSSEPRFSPPLSPPG had a promiscuity of 1, a specificity of 1, a confidence of 2 and an overlap of 1. This molecule yielded a replicates in experiment [7] (setting [9]) of 1. In experiment [7] (phage selection, bait ABL1_SH3__P00519_60_121, NGS counts), this molecule showed a mean_counts_% of 0.0009534%.

On to “LSPVRSPTPPAAGFQPLLNGRLVPVPPTTPAPGVQLDVEAL [B1AK53.S719R]”, for which, in experiment [7], the mutant_found result is reported as “FALSE”, the wildtype_found result is reported as “TRUE” and the max_wildtype_confidence is given as 2. Further, the mutation_effect_on_PPI result in experiment [7] (bait ABL1_SH3__P00519_60_121) was “no_effect”.

NGSLVPVPPTTPAPGV: in experiment [7] (setting [9]), the promiscuity stood at 2, the specificity was found to be 0.8421, the confidence worked out at 2 and the overlap stood at 0. In addition, the replicates in experiment [7] (setting [9]) was found to be 4.

In the case of O14647, in experiment [3], the max_promiscuity came out at 11 and the max_specificity stood at 0.5779.

As for PLFPPPGEPSLSPLLG, in experiment [7] (setting [9]), the promiscuity was determined as 2, the specificity came out at 0.9995, the confidence was 3 and the overlap came to 0. In experiment [7] (setting [9]), this molecule came in with a replicates of 6.

One may read the Kd as the equilibrium constant for the complex coming apart.

Values taken from article PMC11369174, “Proteome-scale characterisation of motif-based interactome rewiring by disease mutations” (Molecular Systems Biology, 2024).
